Tested on: MV-4-11 cells
Assay: Gene expression microarray analysis (Affymetrix PrimeView) and GSEA
Format: cell-based, human
Design: RFU PODN (11730768_x_at) / Fold change /veh PODN (11730768_x_at) / RFU LINC00158 (11744669_a_at) / Fold change /veh LINC00158 (11744669_a_at) / RFU DUSP10 (11751237_a_at) / Fold change /veh DUSP10 (11751237_a_at) / RFU ID3 (11757404_x_at) / Fold change /veh ID3 (11757404_x_at) / RFU PLEKHG5 (11737974_s_at) / Fold change /veh PLEKHG5 (11737974_s_at) / RFU LRRC4B (11730491_at) / Fold change /veh LRRC4B (11730491_at) / RFU GIMAP4 (11747438_a_at) / Fold change /veh GIMAP4 (11747438_a_at) / RFU KRT8 (11758183_x_at) / Fold change /veh KRT8 (11758183_x_at) / RFU CNN1 (11734310_a_at) / Fold change /veh CNN1 (11734310_a_at) / RFU VPS37D (11726825_at) / Fold change /veh VPS37D (11726825_at) / RFU C10orf10 (11716522_x_at) / Fold change /veh C10orf10 (11716522_x_at) / RFU KIR2DL2 /// KIR2DL4 /// KIR2DL5A /// KIR2DL5B /// KIR2DS1 /// KIR2DS2 /// KIR2DS3 /// KIR2DS4 /// KIR3DL3 /// KIR3DL3 /// KIR3DS1 (11738374_at) / Fold change /veh KIR2DL2 /// KIR2DL4 /// KIR2DL5A /// KIR2DL5B /// KIR2DS1 /// KIR2DS2 /// KIR2DS3 /// KIR2DS4 /// KIR3DL3 /// KIR3DL3 /// KIR3DS1 (11738374_at) / RFU C1QL1 (11718748_at) / Fold change /veh C1QL1 (11718748_at) / RFU TMPRSS4 (11747572_a_at) / Fold change /veh TMPRSS4 (11747572_a_at) / RFU HAMP (11756126_x_at) / Fold change /veh HAMP (11756126_x_at) / RFU RNFT2 (11725882_a_at) / Fold change /veh RNFT2 (11725882_a_at) / RFU NR4A2 (11747474_a_at) / Fold change /veh NR4A2 (11747474_a_at) / RFU ABCC12 (11746883_a_at) / Fold change /veh ABCC12 (11746883_a_at) / RFU TMEM136 (11760407_x_at) / Fold change /veh TMEM136 (11760407_x_at) / RFU CLDN22 /// WWC2 (11732394_at) / Fold change /veh CLDN22 /// WWC2 (11732394_at) / RFU HLA-DPB1 (11760878_x_at) / Fold change /veh HLA-DPB1 (11760878_x_at) / RFU SPINT1 (11716480_a_at) / Fold change /veh SPINT1 (11716480_a_at) / RFU GAP43 (11754022_s_at) / Fold change /veh GAP43 (11754022_s_at) / RFU A4GNT (11735810_at) / Fold change /veh A4GNT (11735810_at) / RFU PRB3 (11715151_x_at) / Fold change /veh PRB3 (11715151_x_at) / RFU TUBB4B (11761932_at) / Fold change /veh TUBB4B (11761932_at) / RFU CAPN14 (11732068_a_at) / Fold change /veh CAPN14 (11732068_a_at) / RFU TMCC2 (11721928_a_at) / Fold change /veh TMCC2 (11721928_a_at) / RFU IRGQ (11745062_a_at) / Fold change /veh IRGQ (11745062_a_at) / RFU FAM174B (11720279_a_at) / Fold change /veh FAM174B (11720279_a_at) / RFU TMPRSS4 (11748680_a_at) / Fold change /veh TMPRSS4 (11748680_a_at) / RFU FAM212B (11763350_a_at) / Fold change /veh FAM212B (11763350_a_at) / RFU PLEKHG5 (11743358_a_at) / Fold change /veh PLEKHG5 (11743358_a_at) / RFU ZSCAN30 (11745921_a_at) / Fold change /veh ZSCAN30 (11745921_a_at) / RFU CMKLR1 (11741424_a_at) / Fold change /veh CMKLR1 (11741424_a_at) / RFU LOC101060620 /// MAPK8IP1 (11723275_at) / Fold change /veh LOC101060620 /// MAPK8IP1 (11723275_at) / RFU SPTSSB (11747773_x_at) / Fold change /veh SPTSSB (11747773_x_at) / RFU PRSS12 (11739890_at) / Fold change /veh PRSS12 (11739890_at) / RFU BIN1 (11741810_x_at) / Fold change /veh BIN1 (11741810_x_at) / RFU WNT11 (11732464_a_at) / Fold change /veh WNT11 (11732464_a_at) / RFU C10orf10 (11716521_a_at) / Fold change /veh C10orf10 (11716521_a_at) / RFU C5orf56 (11738089_at) / Fold change /veh C5orf56 (11738089_at) / RFU CYB561 (11721691_x_at) / Fold change /veh CYB561 (11721691_x_at) / RFU ANKRD19P (11752326_a_at) / Fold change /veh ANKRD19P (11752326_a_at) / RFU OR2T12 /// OR2T33 /// OR2T8 (11738714_s_at) / Fold change /veh OR2T12 /// OR2T33 /// OR2T8 (11738714_s_at) / RFU VCAN (11748164_a_at) / Fold change /veh VCAN (11748164_a_at) / RFU JSRP1 (11732532_at) / Fold change /veh JSRP1 (11732532_at) / RFU KRTAP10-11 (11738290_x_at) / Fold change /veh KRTAP10-11 (11738290_x_at) / RFU MYO3A (11730013_a_at) / Fold change /veh MYO3A (11730013_a_at) / RFU EBF3 (11725865_a_at) / Fold change /veh EBF3 (11725865_a_at) / RFU CAMK2N1 (11719241_x_at) / Fold change /veh CAMK2N1 (11719241_x_at) / RFU C5orf56 (11738088_a_at) / Fold change /veh C5orf56 (11738088_a_at) / RFU OLFML3 (11715873_a_at) / Fold change /veh OLFML3 (11715873_a_at) / RFU LOC100653217 /// NTM (11731650_a_at) / Fold change /veh LOC100653217 /// NTM (11731650_a_at) / RFU MAPK11 (11762145_a_at) / Fold change /veh MAPK11 (11762145_a_at) / RFU FIZ1 (11724087_x_at) / Fold change /veh FIZ1 (11724087_x_at) / RFU OASL (11726364_x_at) / Fold change /veh OASL (11726364_x_at) / RFU SOX15 (11748057_x_at) / Fold change /veh SOX15 (11748057_x_at) / RFU CD79A (11719716_a_at) / Fold change /veh CD79A (11719716_a_at) / RFU HIST1H1D (11736915_at) / Fold change /veh HIST1H1D (11736915_at) / RFU CASKIN2 (11723855_a_at) / Fold change /veh CASKIN2 (11723855_a_at) / RFU LOC730098 (11760151_x_at) / Fold change /veh LOC730098 (11760151_x_at) / RFU OR4N2 (11742367_at) / Fold change /veh OR4N2 (11742367_at) / RFU PRRT2 (11749266_a_at) / Fold change /veh PRRT2 (11749266_a_at) / RFU SNX32 (11753110_a_at) / Fold change /veh SNX32 (11753110_a_at) / RFU CDHR5 (11726645_a_at) / Fold change /veh CDHR5 (11726645_a_at) / RFU RCAN1 (11760418_a_at) / Fold change /veh RCAN1 (11760418_a_at) / RFU FAM167A (11723789_a_at) / Fold change /veh FAM167A (11723789_a_at) / RFU FAM26E (11764081_at) / Fold change /veh FAM26E (11764081_at) / RFU ISYNA1 (11749810_s_at) / Fold change /veh ISYNA1 (11749810_s_at) / RFU ACY1 (11761880_at) / Fold change /veh ACY1 (11761880_at) / RFU 11764098_at / Fold change /veh 11764098_at / RFU SAMD14 (11745864_x_at) / Fold change /veh SAMD14 (11745864_x_at) / RFU NPB (11741838_a_at) / Fold change /veh NPB (11741838_a_at) / RFU TMPRSS6 (11731388_a_at) / Fold change /veh TMPRSS6 (11731388_a_at) / RFU KRTAP10-2 (11738614_at) / Fold change /veh KRTAP10-2 (11738614_at) / RFU ARHGAP8 /// PRR5-ARHGAP8 (11727945_x_at) / Fold change /veh ARHGAP8 /// PRR5-ARHGAP8 (11727945_x_at) / RFU KRTAP5-7 /// NADSYN1 (11734609_at) / Fold change /veh KRTAP5-7 /// NADSYN1 (11734609_at) / RFU RASL12 (11751679_a_at) / Fold change /veh RASL12 (11751679_a_at) / RFU CDKN2B (11736163_a_at) / Fold change /veh CDKN2B (11736163_a_at) / RFU PRF1 (11729649_at) / Fold change /veh PRF1 (11729649_at) / RFU, ZNF638 /// ZNF638-IT1 / Fold change vs veh, ZNF638 /// ZNF638-IT1 / RFU, PANK3 / Fold change vs veh, PANK3 / RFU, SH3YL1 / Fold change vs veh, SH3YL1 / RFU, ZEB2 / Fold change vs veh, ZEB2 / RFU, NRIP1 / Fold change vs veh, NRIP1 / RFU, PTTG1IP / Fold change vs veh, PTTG1IP / RFU, CAPN2 / Fold change vs veh, CAPN2 / RFU, MED14 / Fold change vs veh, MED14 / RFU, SNORA58 / Fold change vs veh, SNORA58 / RFU, C1orf63 / Fold change vs veh, C1orf63 / RFU, LRRFIP1 / Fold change vs veh, LRRFIP1 / RFU, NDUFAF7 / Fold change vs veh, NDUFAF7 / RFU, SLC12A2 / Fold change vs veh, SLC12A2 / RFU, IBTK / Fold change vs veh, IBTK / RFU, ESF1 / Fold change vs veh, ESF1 / Fold change vs veh, TMEM50B / RFU, TAOK1 / Fold change vs veh, TAOK1 / RFU, ACBD3 / Fold change vs veh, ACBD3 / RFU, TMA16 / Fold change vs veh, TMA16 / RFU, RWDD3 / Fold change vs veh, RWDD3 / RFU, BCAT1 / Fold change vs veh, BCAT1 / RFU, EDEM3 / Fold change vs veh, EDEM3 / RFU, TMEM33 / Fold change vs veh, TMEM33 / RFU, WDR75 / Fold change vs veh, WDR75 / RFU, AHCTF1 / Fold change vs veh, AHCTF1 / RFU, TFRC / Fold change vs veh, TFRC / RFU, ZDHHC17 / Fold change vs veh, ZDHHC17 / RFU, NOM1 / Fold change vs veh, NOM1 / RFU, ARL8B / Fold change vs veh, ARL8B / RFU, ZBTB11 / Fold change vs veh, ZBTB11 / RFU, TAMM41 / Fold change vs veh, TAMM41 / RFU, KIAA1704 /// LOC100996395 / Fold change vs veh, KIAA1704 /// LOC100996395 / RFU, ING1 / Fold change vs veh, ING1 / RFU, TRMT61B / Fold change vs veh, TRMT61B / RFU, FUBP3 / Fold change vs veh, FUBP3 / RFU, TP53 / Fold change vs veh, TP53 / RFU, TNKS2 / Fold change vs veh, TNKS2 / RFU, ZFP14 / Fold change vs veh, ZFP14 / RFU, ACTR2 / Fold change vs veh, ACTR2 / RFU, PPP3R1 / Fold change vs veh, PPP3R1 / RFU, PIK3R1 / Fold change vs veh, PIK3R1 / RFU, HNRNPA1 / Fold change vs veh, HNRNPA1 / RFU, RNF170 / Fold change vs veh, RNF170 / RFU, ZNF28 / Fold change vs veh, ZNF28 / RFU, RNGTT / Fold change vs veh, RNGTT / RFU, OGT / Fold change vs veh, OGT / RFU, BRD1 / Fold change vs veh, BRD1 / RFU, MARS / Fold change vs veh, MARS / RFU, ZNF655 / Fold change vs veh, ZNF655 / RFU, FAHD1 / Fold change vs veh, FAHD1 / RFU, BDP1 / Fold change vs veh, BDP1 / RFU, LRRCC1 / Fold change vs veh, LRRCC1 / RFU, ARID1A / Fold change vs veh, ARID1A / RFU, ZNF146 / Fold change vs veh, ZNF146 / RFU, ZNF330 / Fold change vs veh, ZNF330 / RFU, GPN3 / Fold change vs veh, GPN3 / RFU, C9orf123 / Fold change vs veh, C9orf123 / RFU, N4BP2L2 / Fold change vs veh, N4BP2L2 / RFU, ARFIP1 / Fold change vs veh, ARFIP1 / RFU, FAM179B / Fold change vs veh, FAM179B / RFU, BCL10 / Fold change vs veh, BCL10 / RFU, UHRF1BP1L / Fold change vs veh, UHRF1BP1L / RFU, BET1 / Fold change vs veh, BET1 / RFU, CNOT2 / Fold change vs veh, CNOT2 / RFU, ZNF268 / Fold change vs veh, ZNF268 / Fold change vs veh, ZNF507 / RFU, DGCR2 / Fold change vs veh, DGCR2 / RFU, WDSUB1 / Fold change vs veh, WDSUB1 / Fold change vs veh, HSP90B1 /// MIR3652 / RFU, ADSS / Fold change vs veh, ADSS / RFU, GK / Fold change vs veh, GK / RFU, ZNF148 / Fold change vs veh, ZNF148 / RFU, TAF9 / Fold change vs veh, TAF9 / RFU, SLC1A5 / Fold change vs veh, SLC1A5 / RFU, SLMO2 / Fold change vs veh, SLMO2 / RFU, ABCC4 / Fold change vs veh, ABCC4 / RFU, LOC101060439 /// RAP1B / Fold change vs veh, LOC101060439 /// RAP1B / RFU, RFX7 / Fold change vs veh, RFX7 / RFU, GTPBP10 / Fold change vs veh, GTPBP10 / RFU, CNEP1R1 / Fold change vs veh, CNEP1R1 / RFU, BIVM-ERCC5 /// ERCC5 / Fold change vs veh, BIVM-ERCC5 /// ERCC5 / RFU, ILF3 / Fold change vs veh, ILF3 / RFU 11762660_at / Fold change /veh 11762660_at / RFU VCAN (11757783_s_at) / Fold change /veh VCAN (11757783_s_at) / RFU DDX43 (11728927_at) / Fold change /veh DDX43 (11728927_at) / RFU KRT8 (11758188_x_at) / Fold change /veh KRT8 (11758188_x_at) / RFU NKD1 (11759106_at) / Fold change /veh NKD1 (11759106_at) / RFU SRD5A1 (11742802_a_at) / Fold change /veh SRD5A1 (11742802_a_at) / RFU TPSAB1 /// TPSB2 (11721975_s_at) / Fold change /veh TPSAB1 /// TPSB2 (11721975_s_at) / RFU GSTM3 (11746129_a_at) / Fold change /veh GSTM3 (11746129_a_at) / RFU IL23R (11737362_x_at) / Fold change /veh IL23R (11737362_x_at) / RFU TMEM51 (11727254_a_at) / Fold change /veh TMEM51 (11727254_a_at) / RFU PIWIL2 (11732686_x_at) / Fold change /veh PIWIL2 (11732686_x_at) / RFU ORM1 (11744905_x_at) / Fold change /veh ORM1 (11744905_x_at) / RFU CCDC152 (11743942_at) / Fold change /veh CCDC152 (11743942_at) / RFU ECM1 (11717891_a_at) / Fold change /veh ECM1 (11717891_a_at) / RFU IL23R (11748794_a_at) / Fold change /veh IL23R (11748794_a_at) / RFU TNFAIP8L3 (11732012_x_at) / Fold change /veh TNFAIP8L3 (11732012_x_at) / RFU MBOAT4 (11741988_at) / Fold change /veh MBOAT4 (11741988_at) / RFU 11764193_at / Fold change /veh 11764193_at / RFU TMEM53 (11763286_at) / Fold change /veh TMEM53 (11763286_at) / RFU MAGEB2 (11727129_at) / Fold change /veh MAGEB2 (11727129_at) / RFU TMEM200A (11744735_a_at) / Fold change /veh TMEM200A (11744735_a_at) / RFU CCDC152 (11751479_a_at) / Fold change /veh CCDC152 (11751479_a_at) / RFU FAM211A (11726209_a_at) / Fold change /veh FAM211A (11726209_a_at) / RFU RGS16 (11746705_a_at) / Fold change /veh RGS16 (11746705_a_at) / RFU VCAN (11755009_s_at) / Fold change /veh VCAN (11755009_s_at) / RFU RHOB (11743442_s_at) / Fold change /veh RHOB (11743442_s_at) / RFU RGS16 (11720943_a_at) / Fold change /veh RGS16 (11720943_a_at) / RFU RGS16 (11720944_at) / Fold change /veh RGS16 (11720944_at) / RFU, VPS4B / Fold change vs veh, VPS4B / RFU, CREB1 / Fold change vs veh, CREB1 / RFU, DNAJC13 / Fold change vs veh, DNAJC13 / RFU, GNAQ / Fold change vs veh, GNAQ / RFU, CDK5R1 / Fold change vs veh, CDK5R1 / RFU, ZRANB3 / Fold change vs veh, ZRANB3 / RFU, CUL4A / Fold change vs veh, CUL4A / RFU, CCNY / Fold change vs veh, CCNY / RFU, UFL1 / Fold change vs veh, UFL1 / RFU, COG3 / Fold change vs veh, COG3 / RFU, DIAPH2 / Fold change vs veh, DIAPH2 / RFU, SKA2 / Fold change vs veh, SKA2 / RFU, AFF3 / Fold change vs veh, AFF3 / RFU, LMF1 / Fold change vs veh, LMF1 / RFU, IPO11 / Fold change vs veh, IPO11 / RFU, DFFB / Fold change vs veh, DFFB / RFU, FOXP1 / Fold change vs veh, FOXP1 / RFU, CARD8 / Fold change vs veh, CARD8 / RFU, STRN3 / Fold change vs veh, STRN3 / RFU, ADK / Fold change vs veh, ADK / RFU, RASSF2 / Fold change vs veh, RASSF2 / RFU, WIPF1 / Fold change vs veh, WIPF1 / RFU, LARP1B / Fold change vs veh, LARP1B / RFU, RASA1 / Fold change vs veh, RASA1 / RFU, RB1 / Fold change vs veh, RB1 / RFU, PPFIA1 / Fold change vs veh, PPFIA1 / RFU, MAT2A / Fold change vs veh, MAT2A / RFU, CCT5 / Fold change vs veh, CCT5 / RFU, WDR92 / Fold change vs veh, WDR92 / RFU, CUX1 / Fold change vs veh, CUX1 / RFU, TTC7A / Fold change vs veh, TTC7A / RFU, TMEM135 / Fold change vs veh, TMEM135 / RFU, DEPTOR / Fold change vs veh, DEPTOR / RFU, CPM / Fold change vs veh, CPM / RFU, DNAJB6 / Fold change vs veh, DNAJB6 / RFU, CACNA2D3 / Fold change vs veh, CACNA2D3 / RFU, DTX4 / Fold change vs veh, DTX4 / RFU, TFCP2 / Fold change vs veh, TFCP2 / RFU, GMCL1 /// GMCL1P1 / Fold change vs veh, GMCL1 /// GMCL1P1 / RFU, AEBP2 / Fold change vs veh, AEBP2 / RFU, SNHG1 /// SNORD22 /// SNORD25 /// SNORD26 /// SNORD27 /// SNORD28 /// SNORD29 /// SNORD31 / Fold change vs veh, SNHG1 /// SNORD22 /// SNORD25 /// SNORD26 /// SNORD27 /// SNORD28 /// SNORD29 /// SNORD31 / Fold change (Aza/veh), C12orf56 (ProbeSet 11735607_a_at) / Fold change (ACY-1035/veh), C12orf56 (ProbeSet 11735607_a_at) / Fold change (Aza/veh), FGFR1OP (ProbeSet 11751329_s_at) / Fold change (ACY-1035/veh), FGFR1OP (ProbeSet 11751329_s_at) / Fold change (Aza/veh), VPS36 (ProbeSet 11739960_a_at) / Fold change (ACY-1035/veh), VPS36 (ProbeSet 11739960_a_at) / RFU SYPL1 (11715823_x_at) / Fold change /veh SYPL1 (11715823_x_at) / RFU IGFBP7 (11715501_s_at) / Fold change /veh IGFBP7 (11715501_s_at) / RFU REEP3 (11722064_at) / Fold change /veh REEP3 (11722064_at) / RFU IGLL1 (11728026_x_at) / Fold change /veh IGLL1 (11728026_x_at): dose or concentration left out as unconfirmed
Details: ProbeSet 11716931_at; LIST B

For Nc1ncn([C@@H]2O[C@H](CO)[C@@H](O)[C@H]2O)c(=O)n1 [azacitidine], the “Fold change vs veh, DGCR2” value was 0.93.

Reference: publication PMC5218480 (PLoS ONE, 2017)
